The text below walks through data of EP0937723A1, “Novel sulfonamides, process for their preparation and medicaments containing them” (Roche Diagnostics GmbH, priority 1998, dated 1999).

Structures can show the parent of a compound that is named as a salt.

For one test, the system named is Citratplasma. Put plainly: Activated partial thromboplastin time (APTT) in citrated plasma, ball coagulometer. The class given is biochemical. The note with it: time as difference to control (control ca. 28-35 s). On the procedure:
(§1) Neun Teile frisches Blut gesunder Spender werden mit einem Teil Natriumcitratlösung (0.11 Mol/l) gemischt und bei ca. 3000 U/min 10 Minuten bei Raumtemperatur zentrifügiert. Das Plasma wird abpipettiert und kann bei Raumtemperatur ca. 8 h aufbewahrt werden.
100 µl Citratplasma und 100 µl APTT-Reagenz (Diagnostica Stago / Boehringer Mannheim GmbH; enthält Lyophilisat Cephalin mit mikrokristallinem Kieselguraktivator) werden zusammen mit 10 µl Dimethylsulfoxid (DMSO) oder 10 µl einer Lösung der Wirksubstanz in DMSO in einem Kugelkoagulometer (KC10 der Fa. Amelung) 3 Minuten bei 37°C inkubiert. Mit Zugabe von 100 µl 0.025 M Calciumchlorid-Lösung wird eine Stoppuhr gestartet und der Zeitpunkt bis zum Eintritt der Gerinnung bestimmt. Die APTT beträgt bei den Kontrollmessungen ca. 28 -35 Sekunden und wird durch Wirksubstanzen verlängert. Sofern bei den Messungen nach 5 Minuten keine Gerinnung eintrat, wurde der Versuch gestoppt (>300).
In Tabelle 1 sind die gemessenen APTT-Zeiten in Sekunden als Differenz zur Kontrolle angegeben. Die Konzentrationen der Wirksubstanzen betrugen im Endvolumen 1000 µM (APTT 1000), 100 µM (APTT 100), 10 µM (APTT 10), 1 µM (APTT 1).

The next test relates to Pferdethrombin. Put plainly: Thrombin time in citrated plasma with thrombin reagent, ball coagulometer. The test is classed as biochemical, Pferd. The note with it: 500 µM final concentration; time as difference to control (control ca. 24 s). As for the experimental part:
as §1
200 µl Citratplasma werden in einem Kugelkoagulometer (KC10 der Fa. Amelung) 2 Minuten bei 37°C inkubiert. Zu 190 µl vortemperiertem Thrombin-Reagenz (Boehringer Mannheim GmbH; enthält ca. 3 U/ml Pferdethrombin und 0.0125 M Ca^++ gibt man 10 µl Dimethylsulfoxid (DMSO) oder eine Lösung der Wirksubstanz in DMSO. Mit Zugabe dieser 200 µl Lösung zum Plasma wird eine Stoppuhr gestartet und der Zeitpunkt bis zum Eintritt der Gerinnung bestimmt. Die Thrombinzeit beträgt bei den Kontrollmessungen ca. 24 Sekunden und wird durch Wirksubstanzen verlängert. Sofern bei den Messungen nach 5 Minuten keine Gerinnung eintrat, wurde der Versuch gestoppt (>300).
In Tabelle 1 sind die gemessenen Thrombinzeiten in Sekunden als Differenz zur Kontrolle angegeben. Die Konzentrationen der Wirksubstanzen betrugen im Endvolumen 500 µM (TT 500).

The target of another test is T1, Humanes α-Thrombin (Homo sapiens, UniProt P00734).
T1 construct: Humanes α-Thrombin; purchased Sigma
Put plainly: Inhibition constant Ki, chromogenic substrate S-2238, photometric at 405 nm. The test is classed as biochemical. Particulars: pH 7.5, 25°C, 0.1 M phosphate buffer, 0.2 M NaCl. On the procedure:
(§2) Die kinetischen Messungen wurden in 0.2 M Kochsalz und 0.5 % Polyethylenglycol 6000 enthaltendem 0.1 M Phosphatpuffer (Herstellung siehe unten) bei pH 7.5 und 25°C in Polystyrol-Halbmikroküvetten in einem Gesamtvolumen von 1 ml durchgeführt . Die Reaktionen wurden durch Zugabe von Enzym zu vorinkubierten Lösungen, die entweder Dimethylsulfoxid (Kontrolle) oder Lösungen der Testsubstanz in DMSO (Inhibitor-Stocklösungen: 10 mM in DMSO) enthielten, gestartet. Die Zunahme der Extinktion bei 405 nm als Folge der Freisetzung von 4-Nitroanilin aus dem Substrat wurde photometrisch über einen Zeitraum von 12 Minuten verfolgt. Im Abstand von 20 Sekunden wurden Meßwerte (Extinktion vs. Zeit) ermittelt und diese Daten per Computer gespeichert.
(§3) Zur Bestimmung der Inhibitionskonstanten Ki wurde wie folgt vorgegangen: Die Geschwindigkeiten V0 (Extinktionsänderung pro Sekunde; Messungen ohne Inhibitor) und Vi (Extinktionsänderung pro Sekunde; Messungen mit Inhibitor) wurden durch lineare Regression bestimmt, wobei nur die Meßpunkte berücksichtigt wurden, bei der sich die Substratkonzentration um weniger als 15% verringerte. Aus einer Meßreihe (konstante Inhibitorkonzentration, variable Substratkonzentrationen) bestimmte man KM und VMAX durch nichtlinearen Fit auf die Gleichung V =(Vmax *[S])/([S]+KM) [formula] […]

In the next test the target is T2, humanem Faktor Xa (Homo sapiens, UniProt P00742).
T2 construct: humanem Faktor Xa; purchased Boehringer Mannheim GmbH
T2 sequence (P00742 235-488 limits assumed): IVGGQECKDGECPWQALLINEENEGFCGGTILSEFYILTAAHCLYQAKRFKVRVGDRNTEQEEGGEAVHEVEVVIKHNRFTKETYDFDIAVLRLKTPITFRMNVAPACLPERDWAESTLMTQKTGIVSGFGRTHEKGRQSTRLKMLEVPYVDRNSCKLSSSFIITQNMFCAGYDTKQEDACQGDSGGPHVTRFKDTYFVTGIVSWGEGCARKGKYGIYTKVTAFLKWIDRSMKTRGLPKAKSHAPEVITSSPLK
T2 sequence (P00742 41-179 partner limits assumed): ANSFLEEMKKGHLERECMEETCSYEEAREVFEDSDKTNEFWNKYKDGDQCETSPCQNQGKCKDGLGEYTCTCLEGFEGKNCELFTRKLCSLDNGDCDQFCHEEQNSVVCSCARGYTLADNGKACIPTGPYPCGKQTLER
Put plainly: Inhibition constant Ki, chromogenic substrate Chromozym X, photometric at 405 nm. The class given is biochemical. Particulars: pH 7.5, 25°C, 0.1 M phosphate buffer, 0.2 M NaCl; read-out: Ki (fXa). As for the experimental part:
as §2, §3

Test [1] addresses T3, bovines pankreatisches Trypsin (Bos taurus, UniProt P00760).
T3 construct: bovines pankreatisches Trypsin (Sigma); purchased Sigma; host or cells: bovine pancreas
T3 sequence (P00760 24-246): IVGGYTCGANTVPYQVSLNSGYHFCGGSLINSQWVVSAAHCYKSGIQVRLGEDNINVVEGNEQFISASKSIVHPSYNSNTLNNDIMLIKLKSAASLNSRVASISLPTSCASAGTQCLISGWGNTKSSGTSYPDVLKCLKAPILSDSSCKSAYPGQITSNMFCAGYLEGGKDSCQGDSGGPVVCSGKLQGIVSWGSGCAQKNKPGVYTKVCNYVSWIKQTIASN
Put plainly: Inhibition constant Ki, chromogenic substrate S-2238, photometric at 405 nm. The test is classed as biochemical, bovin. The note with it: pH 7.5, 25°C, 0.1 M phosphate buffer, 0.2 M NaCl. On the procedure:
as §2, §3

In the case of `N=C(N)N1CCC(Oc2ccc(S(=O)(=O)Nc3ccc4c(c3)CN(C(=N)N)CC4)cc2)CC1` [Beispiel 1, 7-[4-(1-Carbamimidoyl-piperidin-4-yloxy)-benzolsulfonylamino]-3,4-dihydro-1H-isochinolin-2-carboxamidin-dihydrochlorid], the “APTT 1” value with Citratplasma (1 µM final concentration) was 12 Sekunden. In the test with Citratplasma (10 µM final concentration), the “APTT 10” value is 50 Sekunden. Moreover, the “APTT 100” value with Citratplasma (100 µM final concentration) is on record as 140 Sekunden. In the test with Citratplasma (1000 µM final concentration, test stopped after 5 min (>300)), the “APTT 1000” value is on record as > 300 Sekunden. Further, the “TT 500” value in the test on Pferdethrombin turned out to be 40 Sekunden. In addition, the values for the Ki (on Humanes α-Thrombin; on humanem Faktor Xa; in test [1]) were 2000 nM, 10 nM and 100 nM, respectively.
